Square brackets hold non-standard residues; d marks the D form. Peptide text beside a SMILES is read from it. * marks the point of attachment. Sta = CC(C)C[C@H](N)[C@@H](O)CC(=O)O; Isovaleryl = CC(C)CC(=O)*
What was measured:
[1] = tested on: Lice (L) and Plutella (P) eggs; assay: whole plant or invertebrate; conditions: read-out: Ovicidal activity %
[2] = tested on: Lice (L) and Plutella (P) eggs; conditions: in vivo
Plutella xylostella eggs [3] = assay: Glass house ovicidal test on sprayed cabbage plants; assay type: in vivo; conditions: 10 eggs per cabbage plant, one value per plant
Description: A number of treatments and replicates were set up in the glass house using young cabbage plants that were at the 4-5 leaf stage. Plutella xylostella eggs were laid by gravid females on the leaves such that each plant contained 10 eggs. The plants were sprayed with a commercial ovicide or using the compounds 5,5′-dimethyl-2,2′-dipyridyl and 5,5′diethyl-2,2′-dipyridyl in a formulation at the rate of 200 L/Ha using a track sprayer. Controls of water only or Placebo only were also included. The ovicidal efficacy was monitored over a number of days an the number of eggs hatching and caterpillar larvae emerging recorded (Table 22).

[4] = tested on: proteases in egg shell washings (ESW) of lice eggs; assay: Gelatin substrate SDS-PAGE of lice egg shell washings (ESW) incubated with protease inhibitors; assay type: biochemical, Pediculus humanus humanus; conditions: gel strips incubated with inhibitor: PMSF 5 mM, 1,10-phenanthroline 10 mM, EDTA 10 mM, pepstatin 5 μM, E-64 10 μM
Experimental: Within 12 hours of hatching 50 body lice eggs (Pediculus humanus humanus) were removed from the hair and placed in a 1 mL eppendorf tube. 20 μL of distilled water was added to the unhatched eggs and the preparation incubated for 30 minutes at 32° C. The 20 μL was recovered, freeze dried and stored at −70° C. This sample was referred to as sample 1. A number of other samples were also collected as described. Sample 2 was collected by removing the unhatched louse eggs from four hairs that were approximately 3 cm long, cutting the hair into 0.5 cm lengths, and placing them into a microfuge tube containing 20 μl of distilled water and incubating at 32° C. for 30 minutes. Sample 3 was collected as for sample 2, but the hair was placed in a tube containing 10 mL of 1% sodium hypochlorite for 1 minute followed by five 1 minute washes in 25 mL of distilled water to remove the sodium hypochlorite before being incubated in a microfuge tube containing 20 μl of distilled water and incubated as for Sample 2. Sample 4 was collected from unhatched eggs which were removed from the hair and washed with 1% sodium hypochlorite and incubated in 20 μl of distilled water in the same manner as the hair in Sample 3. Finally, Sample 5 was collected from eggs that were within 24 hrs of hatching which were washed with 1% sodium hypochlorite, then returned to the incubator at 32° C. until they hatched, the empty egg shells collected 0-2 hrs after egg-hatching, placed in a 1 mL microfuge tube containing 20 μl of distilled water and incubated as for Samples 1-4. For all samples 1-5 the 20 μl of fluid was recovered, freeze-dried and stored at −70° C. The washings recovered from these freshly hatched egg shells are referred to as egg-shell-washings (ESWs). In order to look for the presence of proteases present in these different samples, the freeze-dried samples were resuspended in 15 μL of non-reducing SDS sample buffer, centrifuged at 10,000 g for 2 minutes and the entire 15 μL loaded on to 10% gelatine substrate SDS-PAGE gels. Gels were run at 4° C. for 10 minutes at 10 mA followed by a further 25 minutes at 15 mA per gel. They were then incubated for 2×20 minutes in a 2.5% Triton-X 100 solution followed by a three hour incubation in 0.1M Tris/HCl containing 1 mM CaCl2 pH 8.0. Activity was detected as clear areas on the gel the result of protease activity degrading the gelatine within the gel.
Protease activity in the ESWs from louse eggs was also examined using two-dimensional gel electrophoresis. It was necessary to collect large numbers of freshly hatched egg shells. Following egglaying onto pieces of cloth, adult female lice were removed and the cloth with the eggs washed with 1% sodium hypochlorite as for collection of ESWs. The eggs were then returned to the incubator and permitted to hatch. Typically 100 to 500 hatched egg shells were collected (0-2 hours post hatching), placed in a microfuge tube containing 200 μl of distilled water, incubated and sample treated as described above. For analysis, ESWs were resuspended in rehydration buffer (8 M Urea, 2% 3-[(3-cholamidopropyl) dimethylammonio]-1-propanesulfonate 2% Immobilised pH gradient buffer 3-10 (Amersham Phamacia Biotech, Uppsala, Sweden)) and used to rehydrate 7 cm Immobiline Dry strips pH 3-10 (Amersham Bioscience) overnight. Strips were transferred to the Multiphor II (Pharmacia, Sweden) apparatus, electrophoresed in the first dimension at 200 V for 1 min, increasing to 3,500 V over the next 90 min followed by 65 min at 3,500 V, equilibrated (6 M urea, 30% glycerol, 50 mM Tris pH 8.8 and 2% SDS) and then run on a 10% SDS-PAGE gel containing 0.1% gelatin for the second dimension. The gel was then run and developed as previously described.
10% SDS-PAGE gelatine substrate gels were loaded with freeze dried egg shell washings from 100 lice eggs that had been resuspended in 50 μL of non-reducing sample buffer with samples run at 10 μL per lane. […]

Plutella xylostella eggs [5] = assay: whole plant or invertebrate; assay type: in vivo; conditions: for inhibition of Plutella egg hatching: 1% diethoxyglycol; for Number hatched / Number unhatched: Table 17, eggs laid on cloth; for % Inhibition: Table 17, relative to control (1% diethoxyglycol); for ovicidal efficacy against Plutella: 1% diethoxyglycol (FIG. 7)
Experimental: The ovicidal efficacy of 2-acetyl-1-tetralone was also tested against Plutella eggs.

H. contortus eggs = assay: Egg hatching in Haemonchus contortus; assay type: in vivo
Experimental: In an attempt to improve control of H. contortus the effects of the compound 5,5′-dimethyl-2,2′-dipyridyl was examined on H. contortus eggs. Eggs were recovered from the faeces of infected sheep using a standard sucrose floatation method. The eggs were corrected to a density of approximately 2,500 eggs per mL and were then exposed to varying concentrations of compound and incubated for 48 hours at 25° C. The eggs were then examined to determine the ovicidal efficacy of the compound in comparison to untreated control and a solvent only control.
In addition, the ovicidal efficacy of the compound 2-acetyl-1-tetralone was examined against H. contortus (FIG. 10). The same protocol was used as described for 5,5′-dimethyl-2,2′-dipyridyl.

[6] = tested on: Helicoverpa armigera eggs; assay: Egg hatching of Helicoverpa armigera; conditions: 1% diethoxyglycol in water (FIG. 6)
Experimental: A range of concentrations were made up in water and the eggs placed in the solutions for approximately 2-10 seconds. The eggs which had been laid on cloth were then blotted dry and placed in an incubator at 26° C. for 3-4 days until hatch. Hatch rates were then assessed compared to a water only treated control (FIG. 5).
The compound was dissolved in 100% diethoxyglycol and diluted to a final concentration of 1% in water.
Several hundred Helicoverpa armigera eggs (Tatura×Toowoomba strains) were collected, that had been laid on fine mesh cloth over a 24 hour period.
Batches of Helicoverpa eggs were exposed to a specific inhibitor solution for between 2-10 seconds the excess solution drained by blotting with dry tissue paper. The egg masses were then placed in a humid box at 25 degrees until egg hatch. Control eggs were exposed to absolute methanol as described above. At day 6 post laying the eggs were assessed from the different treatments and the percentage of egg hatch determined relative to the control as shown in Table 12.
Batches of Helicoverpa eggs were then exposed to a specific inhibitor solution for between 2-10 seconds the excess solution drained by blotting with dry tissue paper. The egg masses were then placed in a humid box at 25° C. until egg hatch. Control eggs were exposed to absolute methanol as described above. At day 6 post laying the eggs were assessed from the different treatments and the percentage of egg hatch determined relative to the control as shown in Table 13.

[7] = 0-24 h, 10 mM (200 L/Ha), with wetting agent 0.3 ml/L

Structure (SMILES): COc1ccc(C(=O)CC(=O)c2ccc(C(C)(C)C)cc2)cc1 [1-(4-tert-butylphenyl)-3-(4-methoxyphenyl)-propane-1,3-dione]
- inhibition at 10000 µM [1]: 0%
- Logit calc pLD50 [2]: 0.7
- Pref pLD50 [2]: <2

Structure (SMILES): Cc1ccc(-c2ccc(C)cn2)nc1 [5,5′dimethyl-2,2′-dipyridyl]
- # LARVAE EMERGED (Plutella xylostella eggs [3]; [7]): 0
- # LARVAE EMERGED (Plutella xylostella eggs [3]; 0-24 h, 20 mM (200 L/Ha), with wetting agent 0.3 ml/L): 0
- # LARVAE EMERGED (Plutella xylostella eggs [3]; 24-48 h, 10 mM (200 L/Ha), with wetting agent 0.3 ml/L): 0
- # LARVAE EMERGED (Plutella xylostella eggs [3]; 24-48 h, 20 mM (200 L/Ha), with wetting agent 0.3 ml/L): 0
- # LARVAE EMERGED (Plutella xylostella eggs [3]; 48-72 h, 20 mM (200 L/Ha), with wetting agent 0.3 ml/L): 0

Structure (SMILES): O=C(O)CN(CCN(CC(=O)O)CC(=O)O)CC(=O)O [EDTA, ethylenediamine tetraacetic acid]
- protease activity of ESW on gelatin SDS-PAGE compared to untreated controls [4]: reduction in protease activity

Structure (SMILES): CCc1ccc(-c2ccc(CC)cn2)nc1 [5,5′-diethyl-2,2′-dipyridyl]
- inhibition of Plutella egg hatching (Plutella xylostella eggs [5]; 0.1 mM): Partial inhibition of egg hatching
- inhibition of Plutella egg hatching (Plutella xylostella eggs [5]; 1 mM): complete inhibition
- Number hatched (Plutella xylostella eggs [5]; 0.1 mM in 1% diethoxyglycol): 22
- Number unhatched (Plutella xylostella eggs [5]; 0.1 mM in 1% diethoxyglycol): 34
- Number hatched (Plutella xylostella eggs [5]; 1 mM in 1% diethoxyglycol): 0
- Number unhatched (Plutella xylostella eggs [5]; 1 mM in 1% diethoxyglycol): 34
- % Inhibition (Plutella xylostella eggs [5]; 0.1 mM): 31%
- % Inhibition (Plutella xylostella eggs [5]; 1 mM): 100%
- # LARVAE EMERGED (Plutella xylostella eggs [3]; 0-24 h, 10 mM (200 L/Ha) No Wetting Agent): 0
- # LARVAE EMERGED (Plutella xylostella eggs [3]; [7]): 0

Structure (SMILES): CC(C)CC(=O)N[C@H](C(=O)N[C@H](C(=O)N[C@@H](CC(C)C)[C@@H](O)CC(=O)N[C@@H](C)C(=O)N[C@@H](CC(C)C)[C@@H](O)CC(=O)O)C(C)C)C(C)C [pepstatin] (Isovaleryl-VV[Sta]A[Sta]-OH)
- protease activity of ESW on gelatin SDS-PAGE compared to untreated controls [4]: no apparent reduction in protease activity

Structure (SMILES): O=S(=O)(F)Cc1ccccc1 [PMSF]
- protease activity of ESW on gelatin SDS-PAGE compared to untreated controls [4]: no apparent reduction in protease activity

Structure (SMILES): CC(C)C[C@H](NC(=O)[C@H]1O[C@@H]1C(=O)O)C(=O)NCCCCN=C(N)N [E-64]
- protease activity of ESW on gelatin SDS-PAGE compared to untreated controls [4]: no apparent reduction in protease activity

Structure (SMILES): CC(=O)C1CCc2ccccc2C1=O (stereo not drawn) [2-acetyl-1-tetralone]
- ovicidal efficacy against Plutella (Plutella xylostella eggs [5]; 0.5 mM): no inhibition observed
- ovicidal efficacy against Plutella (Plutella xylostella eggs [5]; 2 and 1 mM): strong ovicidal efficacy
- inhibition at 1000 µM (Plutella xylostella eggs [5]; Plutella xylostella, Plutella (P), 1 mM, read-out: Ovicidal activity %): 100%
- inhibition at 10000 µM (Plutella xylostella eggs [5]; Plutella xylostella, Plutella (P), 10 mM, read-out: Ovicidal activity %): 100%
- inhibition of H. contortus egg hatch (H. contortus eggs; 22 ug/mL (0.1 mM) (FIG. 10)): Partial inhibition of egg hatching
- inhibition of H. contortus egg hatch (H. contortus eggs; 220 ug/mL (1 mM) and 110 ug/mL (0.5 mM) (FIG. 10)): highly effective at inhibiting egg hatch
- ovicidal efficacy against H. armigera eggs ([6]; 1 mM): efficacy declining
- ovicidal efficacy against H. armigera eggs ([6]; 2 mM): strong ovicidal efficacy

— patent publication US20070254907A1, “COMPOSITIONS AND METHODS FOR CONTROLLING INFESTATION” (HATCHTECH PTY LTD, priority 2003, published 2007)
